Columns and labels:
[1] = (§1) The drug is tested on WLS-027 corresponding to human gut metagenome with ENA study accession number: PRJEB37062 and ENA sample accession number: ERS12561744 for biotransformation under anaerobic condition. The drug concentrations were measured over 9 timepoints collected between 0 and 24 hours of incubation by liquid-chromatography-coupled mass spectrometry (LC–MS); details: 2 µM
[2] = as §1, with “WLS-220” for “WLS-027”, “ERS12561769” for “ERS12561744”; details: 2 µM
[3] = as §1, with “WLS-039” for “WLS-027”, “ERS12561746” for “ERS12561744”; details: 2 µM
[4] = as §1, with “Z-014” for “WLS-027”, “rat” for “human”, “ERS12561814” for “ERS12561744”; details: 2 µM
[5] = human gut metagenome, 24 h, 2 µM
[6] = human gut metagenome, 24 h, 2 µM; remark: listed apart in the source
[7] = as §1, with “WLS-170” for “WLS-027”, “ERS12561762” for “ERS12561744”; details: 2 µM
[8] = as §1, with “Z-002” for “WLS-027”, “rabbit” for “human”, “ERS12561802” for “ERS12561744”; details: 2 µM
[9] = as §1, with “Z-029” for “WLS-027”, “rat” for “human”, “ERS12561828” for “ERS12561744”; details: 2 µM
[10] = as §1, with “Z-008” for “WLS-027”, “to” for “to human gut”, “ERS12561808” for “ERS12561744”; details: 2 µM
[11] = human gut metagenome, 24 h, 2 µM; remark: listed apart in the source
[12] = human gut metagenome, 24 h, 2 µM; remark: listed apart in the source
[13] = as §1, with “WLS-069” for “WLS-027”, “ERS12561748” for “ERS12561744”; details: 2 µM
[14] = human gut metagenome, 24 h, 2 µM; remark: listed apart in the source
[15] = human gut metagenome, 24 h, 2 µM; remark: listed apart in the source
[16] = human gut metagenome, 24 h, 2 µM; remark: listed apart in the source
[17] = as §1, with “Z-011” for “WLS-027”, “mouse” for “human”, “ERS12561811” for “ERS12561744”; details: 2 µM
[18] = as §1, with “Z-006” for “WLS-027”, “mouse” for “human”, “ERS12561806” for “ERS12561744”; details: 2 µM
[19] = human gut metagenome, 24 h, 2 µM; remark: listed apart in the source
[20] = human gut metagenome, 24 h, 2 µM; remark: listed apart in the source
Also: call rule not given here.

SMILES	Bacterial Biotransformation [1]	Bacterial Biotransformation [2]	Bacterial Biotransformation [3]	Bacterial Biotransformation [4]	Bacterial Biotransformation [5]	Bacterial Biotransformation [6]	Bacterial Biotransformation [7]	Bacterial Biotransformation [8]	Bacterial Biotransformation [9]	Bacterial Biotransformation [10]	Bacterial Biotransformation [11]	Bacterial Biotransformation [12]	Bacterial Biotransformation [13]	Bacterial Biotransformation [14]	Bacterial Biotransformation [15]	Bacterial Biotransformation [16]	Bacterial Biotransformation [17]	Bacterial Biotransformation [18]	Bacterial Biotransformation [19]	Bacterial Biotransformation [20]
NC12CC3CC(CC(C3)C1)C2 [AMANTADINE]	Compound NOT metabolized	Compound NOT metabolized	Compound NOT metabolized	Compound NOT metabolized	Compound NOT metabolized	Compound NOT metabolized	Compound metabolized	Compound NOT metabolized	Compound NOT metabolized	Compound NOT metabolized	Compound NOT metabolized	Compound NOT metabolized	Compound NOT metabolized	Compound NOT metabolized	Compound NOT metabolized	Compound NOT metabolized	Compound NOT metabolized	Compound NOT metabolized	Compound NOT metabolized	Compound NOT metabolized
CC(C)(C#N)c1cc(Cn2cncn2)cc(C(C)(C)C#N)c1 [ANASTROZOLE]	Compound NOT metabolized	Compound metabolized	Compound NOT metabolized	Compound NOT metabolized	Compound NOT metabolized	Compound metabolized	Compound metabolized	Compound metabolized	Compound NOT metabolized	Compound NOT metabolized	Compound NOT metabolized	Compound NOT metabolized	Compound metabolized	Compound metabolized	Compound NOT metabolized	Compound NOT metabolized	Compound NOT metabolized	Compound NOT metabolized	Compound NOT metabolized	Compound metabolized
O=P(O)(O)O.c1ccc(CN(CC2=NCCN2)c2ccccc2)cc1 [ANTAZOLINE PHOSPHATE]	Compound NOT metabolized	Compound metabolized	Compound NOT metabolized	Compound NOT metabolized	Compound NOT metabolized	Compound metabolized	Compound metabolized	Compound metabolized	Compound NOT metabolized	Compound NOT metabolized	Compound NOT metabolized	Compound metabolized	Compound NOT metabolized	Compound metabolized	Compound NOT metabolized	Compound NOT metabolized	Compound NOT metabolized	Compound NOT metabolized	Compound NOT metabolized	Compound NOT metabolized
CN1CCC(=C2c3ccccc3CCc3cccnc32)CC1.O=C(O)/C=C\C(=O)O.O=C(O)/C=C\C(=O)O [AZATADINE MALEATE]	Compound NOT metabolized	Compound NOT metabolized	Compound NOT metabolized	Compound NOT metabolized	Compound NOT metabolized	Compound metabolized	Compound NOT metabolized	Compound NOT metabolized	Compound NOT metabolized	Compound NOT metabolized	Compound NOT metabolized	Compound NOT metabolized	Compound NOT metabolized	Compound NOT metabolized	Compound NOT metabolized	Compound NOT metabolized	Compound NOT metabolized	Compound NOT metabolized	Compound NOT metabolized	Compound NOT metabolized
CC(=O)OCC(=O)[C@@]1(O)[C@@H](C)C[C@H]2[C@@H]3CCC4=CC(=O)C=C[C@]4(C)[C@@]3(F)[C@@H](O)C[C@@]21C [BETAMETHASONE ACETATE]	Compound metabolized	Compound metabolized	Compound metabolized	Compound NOT metabolized	Compound metabolized	Compound metabolized	Compound metabolized	Compound metabolized	Compound metabolized	Compound NOT metabolized	Compound NOT metabolized	Compound metabolized	Compound metabolized	Compound metabolized	Compound metabolized	Compound metabolized	Compound metabolized	Compound metabolized	Compound metabolized	Compound metabolized
CC(C)NCC(O)COc1ccc(CCOCC2CC2)cc1 (stereo not given) [BETAXOLOL]	Compound NOT metabolized	Compound NOT metabolized	Compound NOT metabolized	Compound NOT metabolized	Compound NOT metabolized	Compound metabolized	Compound metabolized	Compound metabolized	Compound NOT metabolized	Compound NOT metabolized	Compound NOT metabolized	Compound metabolized	Compound NOT metabolized	Compound metabolized	Compound metabolized	Compound NOT metabolized	Compound NOT metabolized	Compound NOT metabolized	Compound NOT metabolized	Compound NOT metabolized
CC(C)(Oc1ccc(CCNC(=O)c2ccc(Cl)cc2)cc1)C(=O)O [BEZAFIBRATE]	Compound metabolized	Compound metabolized	Compound metabolized	Compound NOT metabolized	Compound metabolized	Compound metabolized	Compound metabolized	Compound metabolized	Compound NOT metabolized	Compound NOT metabolized	Compound NOT metabolized	Compound metabolized	Compound metabolized	Compound metabolized	Compound metabolized	Compound metabolized	Compound NOT metabolized	Compound NOT metabolized	Compound metabolized	Compound metabolized

Reference: ChEMBL document CHEMBL5724914, “Linking interpersonal differences in gut microbiota composition and drug biotransformation activity” (2024)
